Results: patent publication US4620014A, “2-furylbutyrolactones and methods for using same” (priority 1983, dated 1986)
Values joined by “and” are separate entries in the source; they are usually repeats but may differ in a detail not shown here. Equal values may be shown once.

Tests used:
CD-1 mice = settings: 14 days
Protocol: (§1) Single oral dose LD50 in CD-1 mice and CD rats, obtained from Charles River U.K. Ltd., for Cpd. 1 is determined. […] Cpd. 1, dissolved in buffer, or just buffer is administered orally and the mice and rats are observed for 14 days after dosing. After 14 days, the animals are sacrified and necropsy is performed to check for gross evidence of toxicity.

CD rats = settings: 14 days
Protocol: as §1

[1] = system: spleen lymphocytes from C57BL/6 mice; assay: In vitro lymphocyte stimulation assay, C57BL/6 spleen lymphocytes; format: cell-based, mouse
Protocol: (§2) The purpose of this assay is to challenge lymphocytes in microcultures with one or more polyclonal mitogens at concentrations that will induce mitogenesis within 72 hours of stimulation.
(§3) In the mouse model, spleens are removed from different strains of mice and the spleen cells are teased free and suspended in RPMI-1640 tissue culture medium at a concentration of usually 1×10^7 ml. These cells are dispensed at a concentration of 5.0×10^5 cells per microculture well in a 96 well flat bottom 96 well tissue culture plate. All testing of the compounds of this invention or mitogens are done in replicates of 10. The cells are then treated with PHA, Con-A, specific antigens, or buffer only. If in vitro testing is done, varying concentrations of the compounds of this invention or buffer only are added to the cells as well. After treatment with the mitogens and/or compounds of this invention, the cells are incubated for 72 hours. The response of these cells to mitogens and/or the compounds of this invention is assessed using ^14 C-thymidine labeling on the fourth day at a concentration of 0.01 μCi/well. The labeled cells are harvested using a lymphocyte harvestor and placed onto fibrous paper discs. A scintillation cocktail is added to vials contaning the discs and the results are obtained using a LKB-liquid scintillation counter (Model 1216/Rackbeta II). The data is expressed as a ratio of the cpm of the mitogen stimulated group to the control (non-mitogen) treated group=lymphocyte stimulation index (LSI).
(§4) The lymphocyte stimulation assay may be performed directly on spleen cells obtained from various strains of mice not treated with the compounds of this invention or on lymphocytes obtained from […]. […] Alternatively, the mice may be treated in vivo with the compounds of this invention by intraperitoneal multi-dose schedules, followed by sacrifice and harvesting spleen lymphocytes. These cells are then tested for their response to polyclonal mitogens or specific antigens used to immunize the mice. In this sytem however, no additional compound is added to the in vitro lymphocyte stimulation assay system.
An in vitro lymphocyte stimulation assay is performed directly on normal spleen lymphocytes removed from five normal C57BL/6 mice, using concentrations of Cpd. […] Following three days of incubation the assay is completed.
An in vitro lymphocyte stimulation assay was performed using spleen lymphocytes from normal C57BL/6 mice. The lymphocytes were treated with either 1, 5, 10, 50, or 100 μg/well of Cpd. 1 or buffer.
Cpd. 2 was tested using normal spleen lymphocytes from C57BL/6 mice. A lymphocyte stimulation assay was conducted using either 1, 5, 10, 50, or 100 μg/well […] or just buffer.
Spleen cells from C57BL/6 mice were treated, in vitro, with the crystallizing reagents, succinic acid and succinimide. Since these compounds are spontaneously released from the molecular complex in solution at a molar ratio of 2 moles of Cpds. 1, 2, or 3 per mole of the crystalline reagent, these reagents were treated in the lymphocyte stimulation assay at proper molar concentrations.
The compound of example 3, Cpd. 3, was used to treat C57BL/6 spleen lymphocytes in vitro. The lymphocytes were treated with either 1, 5, 10, 50, or 100 μg/well of Cpd. 3 or just buffer and then a lymphocyte stimulation assay was performed.

human lymphocytes = assay: In vitro lymphocyte stimulation assay in humans; format: cell-based; settings: PHA and Con-A
Protocol: as §2, §3
as §4, with “In this sytem however, no additional compound is added to the in vitro lymphocyte stimulation assay system.” left out

[2] = system: spleen lymphocytes of C57BL/6 mice; assay: In vivo treatment, lymphocyte stimulation assay, C57BL/6 mice
Protocol: as §2, §3, §4
Two strains of mice, C57BL/6 and BDF1 are treated for seven days with i.p. administration of either 25, 50, 100, 200, or 400 mg/kg of Cpd. 1 or just buffer. This is followed on the eighth day by a lymphocyte stimulation assay.
A comparison is made of the lymphocyte response to C57BL/6 mice treated 4 days with i.p. administration of either 50, 100, 200, 400 or 800 mg/kg of Cpd. 1, 50, 100, 200, 400 or 800 mg/kg of ascorbic acid (AA), or just buffer. This is followed on the fifth day by a lymphocyte stimulation assay.
Two strains of mice, C57BL/6 and BALB/c, are treated 4 days with i.p. administration of either 50, 100, 200, or 400 mg/kg of Cpd. 1, or just buffer. This is followed on the fifth day by a lymphocyte stimulation assay.
C57BL/6 mice were treated with four daily i.p. doses of either 50, 100, 200, or 400 mg/kg of Cpd. 1 or just buffer. On the fifth day a lymphocyte stimulation assay was performed.
Mice of the C57BL/6 strain were tested with i.p. administration of either 100, 200, 400 or 600 mg/kg of Cpd. 1 or just buffer. This was followed by removal of spleens and treatment of lymphocytes therein with mitogens PHA and Con-A.
The compound of Example 2, Cpd. 2, was tested in vivo by using C57BL/6 mice and treating them with […] or just buffer for four consecutive days by the i.p. route. On the fifth day a lymphocyte stimulation assay was performed.

Which results are given for `Cc1ccc(C2(O)C(=O)OC3C(O)COC32O)o1.Cc1ccc(C2(O)C(=O)OC3C(O)COC32O)o1.O=C1CCC(=O)O1` (stereo not drawn) [Cpd. 1]?
deaths or signs of toxicity (CD-1 mice; single oral 5 g/kg): No deaths or signs of toxicity; LD50 (CD-1 mice; single oral dose): > 5000 mg/kg; deaths or signs of toxicity (CD rats; single oral 5 g/kg): No deaths or signs of toxicity; LD50 (CD rats; single oral dose): > 5000 mg/kg; Lymphocyte Stimulation Index, Con-A ([1]; 1 μg/well in vitro): 178 and 123; Lymphocyte Stimulation Index, PHA ([1]; 1 μg/well in vitro): 53.8 and 80.4; Lymphocyte Stimulation Index, Con-A ([1]; 5 μg/well in vitro): 162; Lymphocyte Stimulation Index, Control (no mitogen) ([1]; 5 μg/well in vitro): 1.8; Lymphocyte Stimulation Index, PHA ([1]; 5 μg/well in vitro): 157; mitogenesis, PHA and Con-A ([1]; 10 μg/well (Example 12)): significant suppression; Lymphocyte Stimulation Index, Con-A ([1]; 50 μg/well in vitro): 3.78; Lymphocyte Stimulation Index, Control (no mitogen) ([1]; 50 μg/well in vitro): .20; Lymphocyte Stimulation Index, PHA ([1]; 50 μg/well in vitro): .261; Lymphocyte Stimulation Index, Con-A ([1]; 100 μg/well in vitro): .308; Lymphocyte Stimulation Index, Control (no mitogen) ([1]; 100 μg/well in vitro): .20; Lymphocyte Stimulation Index, PHA ([1]; 100 μg/well in vitro): .292; mitogenesis, PHA and Con-A ([1]; 0.001-1.0 μg/well): significant stimulation of mitogenesis; response to PHA and Con-A ([1]; 5 and 10 μg/well): significant increases; lymphocyte response to the mitogens ([1]; 50 and 100 μg/well): significant decreases; Lymphocyte Stimulation Index, Con-A ([1]; .001 μg/well in vitro): 198; Lymphocyte Stimulation Index, Control (no mitogen) ([1]; .001 μg/well in vitro): 3.8; Lymphocyte Stimulation Index, PHA ([1]; .001 μg/well in vitro): 80.4; Lymphocyte Stimulation Index, Con-A ([1]; .01 μg/well in vitro): 198; Lymphocyte Stimulation Index, Control (no mitogen) ([1]; .01 μg/well in vitro): 3.2; Lymphocyte Stimulation Index, PHA ([1]; .01 μg/well in vitro): 87.5; Lymphocyte Stimulation Index, Con-A ([1]; .1 μg/well in vitro): 198; Lymphocyte Stimulation Index, Control (no mitogen) ([1]; .1 μg/well in vitro): 3.2; Lymphocyte Stimulation Index, PHA ([1]; .1 μg/well in vitro): 83.1; lymphocyte response, very low doses (human lymphocytes; 1 and 0.1 μg/ml): markedly increased lymphocyte response; lymphocyte response, high dose (human lymphocytes; 100 and 50 μg/ml): high dose anti-proliferative effect; T-lymphocyte proliferation, PHA ([2]; 200 mg/kg i.p., 7 days): stimulation of T-lymphocyte proliferation; response to PHA ([2]; 400 mg/kg compared to 200 mg/kg, four daily doses): decrease in the response to PHA; PHA response ([2]; 400 mg/kg i.p., 7 days): strong suppression of the PHA response; Con-A response ([2]; 400 mg/kg i.p., 7 days, compared to 200 mg/kg): suppression of the Con-A response; DNA synthesis of spleen cell lymphocytes ([2]; 400 mg/kg, compared to 200 mg/kg, 4 days): suppress DNA synthesis; evidence of toxicity ([2]; 600 mg/kg i.p., five day administration): no evidence of toxicity; stimulation of lymphocytes ([2]; 600 mg/kg, compared to 100 to 400 mg/kg, five days): less stimulation; lymphocyte DNA synthesis, PHA and Con-A ([2]; 50, 100 and 200 mg/kg i.p., 4 days): tend to stimulate lymphocyte DNA synthesis; Con-A response ([2]; 50, 100 and 200 mg/kg i.p., 7 days): increased; response to polyclonal mitogens ([2]; 50-400 mg/kg i.p., four daily doses): Stimulation of the response to polyclonal mitogens; effect, Con-A ([2]; 50 to 200 mg/kg i.p., 4 days): significant stimulatory effect; lymphocyte DNA synthesis, PHA ([2]; 100 and 200 mg/kg i.p., 4 days): tend to stimulate lymphocyte DNA synthesis; Con-A and PHA treated lymphocytes ([2]; 100 to 400 mg/kg, five days): significant stimulation; DNA synthesis of spleen lymphocytes, PHA ([2]; 400 to 800 mg/kg i.p., 4 days): suppress DNA synthesis of spleen lymphocytes; effect, Con-A ([2]; 400 to 800 mg/kg i.p., 4 days): significant anti-proliferative effect
